# Measurements taken from patent US20080027022A1, “METHOD TO TREAT GASTRIC LESIONS” (priority 2006, published 2008).
# Columns and labels:
# Type in all cases: in vivo, rat
# PGE2 = assay: Mucosal content of PGE2 (radioimmunoassay)
# Protocol: A part of fundic mucosa (about 100 mg) was excised for determination of PGE2 synthesis. The samples were weighed, finely minced with scissors for 15 sec, then suspended in 1.0 ml of 10 mM sodium phosphate buffer (pH 7.4). The samples were then incubated in a shaking bath (37°) for 29 min followed by centrifugation (9000 g for 30 sec). The supernatant was frozen and subsequent determination of PGE2 was performed by radioimmunoassay using PGE2 [125I] RIA kit (Dupont/NEN, Boston, Mass., USA).
# [1] = tested on: Aspirin-induced gastric injury; assay: Aspirin-induced gastric mucosal injury model (ulcer index); details: rats, 3 h after aspirin, control 29.8±7.7
# Protocol: Male Sprague-Dawley rats weighting 250-300 g were fed a standard laboratory diet and water ad libitum, and kept in cages in a temperature and humidity controlled room with a 12 hour dark-light cycle before and during the experiment. Prior to administration of aspirin, animals were deprived of food for 24 hours but had free access to water. This experimental protocol was approved by the Akita University Animal Care Committee. Aspirin-induced gastric injury was produced by intragastric administration of aspirin (200 mg/kg) and HCl (0.15 N, 8 ml/kg). ATL-146e (2.5 or 5 μg/kg, n=5 in each dose) or vehicle was injected intraperitoneally 30 minutes prior to aspirin administration. The animals were sacrificed by stunning and cervical dislocation 3 hours after aspirin administration and the stomach was removed. Gastric mucosal lesions were measured by two independent observers blinded to the treatment. The ulcer index was calculated as the sum of the lengths of all lesions.
# myeloperoxidase (MPO) = assay: Myeloperoxidase (MPO) concentration in the gastric mucosa after aspirin; details: rats, 3 h after aspirin, normal 2.8±0.2, vehicle 13.8±1.2, P<0.001
# Protocol: An assay of gastric mucosal myeloperoxidase concentration was applied to quantify the degree of neutrophil infiltration. Three hundred milligrams of scraped mucosa was homogenized for 30 sec with a polytron homogenizer (PT 1200, KInematica AG, Littau, Switzerland) in 1.0 ml of ice-cold 0.5% hexadecyliltrimethylammonium bromide in 50 mM phosphate buffer (pH 6.0). Hexadecyliltrimethylammonium bromide is used to negate the pseudoperoxidase activity of hemoglobin and to solubilize membrane-bound MPO. The homogenate was sonicated (U50 IKA Werke Grm1H and Co. KG, Staufen, Germany) for 10 seconds, freeze-thawed three times and centrifuged for 20 minutes at 18,000 g. The supernatant was taken for determination of the enzyme activity utilizing an ELISA kit (Bioxytech, Oxis International, Inc. Portland, Oreg., USA). The change in absorbance at 405 nm was measured with a spectrophotometer (Microplate reader model 3550, Bio-Rad, Hercules, Calif., USA). The concentration of myeloperoxidase was expressed as nanogram per mg protein measured using Bradford's method.
# TNF-α = assay: Gastric mucosal concentration of TNF-α after aspirin (ELISA); details: rats, gastric mucosa, 3 h after aspirin
# Protocol: (§1) One hundred milligrams of scraped mucosa was homogenized for 30 sec with a polytron homogenizer (PT 1200, KInematica AG, Littau, Switzerland) in 1.0 ml of ice-cold potassium phosphate buffer (pH 7.4). Following centrifugation at 10,000 g for 10 minutes, aliquots of homogenate supernatants in PBS were obtained by centrifugation (10,000 g for 10 minutes). The total protein was measured by Bradford's method. The concentration of TNF-α and IL-1β in the supernatant of mucosal homogenates was determined by ELISA (R&D systems Inc., Minneapolis, Minn., USA) according to the manufacture's instruction. After color development, optimal density was measured with microplate reader. The concentration of TNF-α and IL-1β were expressed as pictogram/mg protein.
# IL-1β = assay: Gastric mucosal concentration of IL-1β after aspirin (ELISA); details: rats, gastric mucosa, 3 h after aspirin
# Protocol: as §1
# gastric acid secretion = assay: Gastric secretion, pylorus-ligation method; details: rats, 5 μg/kg i.p., 3 h
# Protocol: Gastric juice was collected using the pylorus-ligation method. Briefly, rats were fasted for 24 hours, placed in restraint cages, and injected intraperitoneal with 5 μg/kg of ATL-146e. Thirty minutes after injection, pylorus ligation was performed. The stomach was removed 3 hours after pylorus ligation, and the gastric contents were collected. Following centrifugation the acid content of the supernatant was determined by titration with 0.01 mol NaOH to pH 7.0 using pH meter (f50 pH Meter; Beckman, Tokyo, Japan), and used to calculate gastric acid secretion in mEq/3 h.
SMILES,"reduction of PGE2 concentration vs vehicle-treated rats (PGE2; aspirin 200 mg/kg alone, P<0.05) [%]","concentration of PGE2 in gastric mucosa (PGE2; rats, aspirin 200 mg/kg alone (group C), vehicle-treated 255.3±64.7) [ng/g]","ulcer index (total length of gastric erosions) ([1]; 2.5 μg/kg i.p. 30 min before aspirin 200 mg/kg + HCl, P<0.05) [mm]","ulcer index (total length of gastric erosions) ([1]; 5.0 μg/kg i.p. 30 min before aspirin 200 mg/kg + HCl, P<0.01) [mm]",MPO concentration in the gastric mucosa (myeloperoxidase (MPO); 2.5 μg/kg pretreatment) [μg/g protein],MPO concentration in the gastric mucosa (myeloperoxidase (MPO); 5 μg/kg pretreatment) [μg/g protein],reduction of the increase in TNF-α above control levels caused by aspirin (TNF-α; 2.5 μg/kg) [%],reduction of the increase in TNF-α above control levels caused by aspirin (TNF-α; 5 μg/kg) [%],reduction of the increase in IL1-β above control levels caused by aspirin (IL-1β; 2.5 μg/kg) [%],reduction of the increase in IL1-β above control levels caused by aspirin (IL-1β; 5 μg/kg) [%],increase in gastric acid output (gastric acid secretion; P<0.05),"gastric acid output (gastric acid secretion; without compound 114, P<0.05) [mmolq/3 h]","effect on the reduction of gastric PGE2 concentration induced by aspirin (PGE2; rats, 5 μg/kg before aspirin 200 mg/kg, P>0.05 vs. aspirin alone)"
"CC(=O)Oc1ccccc1C(=O)O [aspirin, acetylsalicylic acid]",82.3,47.4 ± 5.6,,,,,,,,,,,
"CCNC(=O)C1OC(n2cnc3c(N)nc(C#CCC4CCC(C(=O)OC)CC4)nc32)C(O)C1O (stereo not shown) [ATL-146e, 4-{3-[6-Amino-9-(5-ethylcarbamoyl-3,4-dihydroxy-tetrahydro-furan-2-yl)-9H-purin-2-yl]-prop-2-ynyl}-cyclohexanecarboxylic acid methyl ester]",,,7.0±2.34,3.1±1.42,2.9±0.35,2.7±0.14,90.3,99.7,64.0,97.2,threefold,326,did not interfere with the reduction of gastric PGE2 concentration induced by aspirin
